Here are results for three compounds from paper PMC12384813.

The structures appear in SMILES notation. Like-named read-outs stand apart in the source and are kept apart here.

The test system of series [1] is U87 MG cells. The series is described as follows: cells. The following applies: U87 MG. In kind it is cell-based, human. How it is done: In this procedure, U87 MG (2 × 10^4 cells per well) were seeded in BD falcon transparent 96-well plates and incubated for 24 h.
The test system of series [2] is SVG p12 normal glial cells.
On the set-up of series [3]: method as in PMID 30023392. The following applies: daily cisplatin for 5 days before radiation ref 24; cited from earlier work.
Series [4] has as its target T1, αvβ3 integrins on human GBM (U87 MG) cell (Homo sapiens, UniProt P05106+P06756).
T1 construct: host or cells: U87 MG
The series can be described thus: Competition assay against [^64Cu]Cu-NOTA-c(RGDfK) on U87 MG cells. In kind it is binding. The following applies: in competition to [^64Cu]Cu-NOTA-c(RGDfK), 1 h incubation.

The test system of series [5] is U87 MG cells. The series is described as follows: Cellular uptake of ^64Cu-NOTA conjugates. In kind it is cell-based, human. How it is done:
(§1) U87 MG (1 × 10^5 per well) were seeded in corning 24-well plates and cultured in DMEM with 10% FBS at 37 °C. […] For uptake assay, cells were washed with PBS to collect surface-bound and internalized activity, and for internalization assay, glycine-HCl wash was performed to remove surface bound activity. Moreover, cells were harvested, counted, and radioactivity was measured using a gamma counter. Results were expressed as percentage of total activity (%) in counts per min (CPM)/10^6 cells. For efflux studies, U87 MG cells were incubated with the complexes for 1 h, then washed with PBS, and replaced with fresh medium. The retained activity was measured over 0 to 24 h after washing.

Series [6] concerns SVG p12 cells. The series can be described thus: Cellular uptake of ^64Cu-NOTA conjugates. In kind it is cell-based, human. The following applies: Table S1.
Series [7] deals with U87 MG cells. The series is described as follows: Internalization of ^64Cu-NOTA conjugates (glycine-HCl wash). In kind it is cell-based, human. How it is done:
as §1

Series [8] relates to SVG p12 cells. The description is as above. In kind it is cell-based, human. The following applies: Table S2.
In series [9] the test system is U87 MG cells. The series can be described thus: Efflux kinetics of ^64Cu-NOTA conjugates. The following applies: Table S3. In kind it is cell-based, human. On the procedure: as §1
Series [10] relates to SVG p12 cells. The series is described as follows: Efflux kinetics of ^64Cu-NOTA conjugates. In kind it is cell-based, human. The following applies: Table S3.
Series [11] deals with SVG p12 cells. The series is described as follows: Subcellular localization (nucleus/cytoplasm fractions). In kind it is cell-based, human. How it is done: (§2) The nucleus and cytoplasm of U87 MG and SVG p12 cells were extracted following established procedures as previously reported. […] After incubation, cells were washed and incubated on ice with CSK buffer (0.5% Triton X-100, 300 mM sucrose, 100 mM NaCl, 1 mM EDTA, 2 mM MgCl2, and 10 mM HEPES, pH 6.8) for 2 min. After 5 min centrifugation, supernatant containing cytoplasmic extract was collected and transferred in labeled tubes. The resulting pellets were incubated on ice for 2 min with CSK buffer without Triton X-100 to extract the nuclear fraction. The buffer containing the nuclear fraction was collected into separate tubes. The radioactivity in both cytoplasmic and nuclear fractions was measured using a gamma counter (HIDEX Automatic Gamma Counter 2014).

The subject of series [12] is U87 MG cells. The series is described as above. In kind it is cell-based, human. How it is done:
as §2

A short description of series [13]: Plasma stability by radio-TLC. The following applies: 48 h, 37 °C, mouse plasma. In kind it is in vitro ADME. On the procedure:
To precipitate plasma proteins, the samples were treated twice with ethanol (1:1, v/v), vortexed for 1 min, and centrifuged at 7000 rpm for 10 min. The soluble fraction was separated by ultracentrifugation, and radioactivity was measured. The resulting supernatant was analyzed by radio-TLC on C18 plates. […] Radio-TLC was developed using 0.1 M sodium citrate buffer (pH 5.5), and radiodetection was performed with an Instant Imager system (BioScan, Washington, DC, USA) (Figure S5C). The supernatant fraction was then analyzed using the same methodology described above.

Series [14] has as its target bovine serum albumin (Bos taurus, UniProt P02769). The series can be described thus: Binding to bovine serum albumin. In kind it is in vitro ADME.
Setting [15] is: 0.5 h after 1 h incubation and wash.

As to `N.N.[Cl][Pt][Cl]` [Cisplatin], the EC50 in series [1] (24 h, read-out: EC50 24 h U87 MG) amounted to 90 ± 8 µM; in [1] (48 h, read-out: EC50 48 h U87 MG), 25 ± 6 µM; in series [1] (72 h, read-out: EC50 72 h U87 MG) it was 20 ± 5 µM; in series [2], 15 ± 5 µM; in series [2] (read-out: EC50 24 h SVG p12, 24 h, SVG p12), 35 ± 4 µM; in [2] (read-out: EC50 48 h SVG p12, 48 h, SVG p12), 15 ± 7 µM. In series [3], the “increase of treatment efficacy compared to radiotherapy alone” value is on record as 35%.

For `N=C(N)NCCC[C@@H]1NC(=O)[C@H](CCCCNC(=O)CNC(=O)COCCOCCNC(=O)CN2CCN(CC(=O)O)CCN(CC(=O)O)CC2)NC(=O)[C@@H](Cc2ccccc2)NC(=O)[C@H](CC(=O)O)NC(=O)CNC1=O` [^natCu-NOTA-c(RGDfK), metal not drawn], in series [4], the IC50 stood at 0.0106 ± 0.0032 µM.

On to `N=C(N)NCCC[C@@H]1NC(=O)[C@H](CCCCNC(=O)[C@H](CCCCNC(=O)c2cc(-c3ccccn3)nc(-c3ccccn3)c2)NC(=O)COCCOCCNC(=O)CN2CCN(CC(=O)O)CCN(CC(=O)O)CC2)NC(=O)[C@@H](Cc2ccccc2)NC(=O)[C@H](CC(=O)O)NC(=O)CNC1=O` [metal not drawn], for which, in series [5] (1 h, 37 °C, Table S1), the “Uptake 1h U87 MG” value is 6.21 ± 1.58 % total activity (CPM) /106 cells. The “Uptake 2h U87 MG” value in series [5] (2 h, Table S1) is 6.89 ±1.73 % total activity (CPM) /106 cells. Besides, the “Uptake 4h U87 MG” value in series [5] (4 h, Table S1) is 10.33 ± 1.86 % total activity (CPM) /106 cells. Further, the “uptake in U87 MG cells” value in series [5] (24 h) is given as 38.8 ± 1.8%. In series [5] (24 h, Table S1), the “Uptake 24h U87 MG” value is listed as 38.76 ± 1.82 % total activity (CPM) /106 cells. For the same compound, in [5] (24 h, U87 MG), the “uptake relative to [^64Cu]Cu-NOTA-TP” value is “approximately 1.3 times”. In addition, in series [5] (24 h, U87 MG), the “uptake relative to [^64Cu]Cu-NOTA-c(RGDfK)” value is roughly 2.7 times. The “Uptake 48h U87 MG” value in series [5] (48 h, Table S1) is 37.56 ± 1.30 % total activity (CPM) /106 cells. Moreover, the “Uptake 1h SVG p12” value in [6] (1 h) is given as 3.63 ± 0.21 % total activity (CPM) /106 cells. The “Uptake 2h SVG p12” value in series [6] (2 h) is on record as 4.96 ± 0.89 % total activity (CPM) /106 cells. In addition, the “Uptake 4h SVG p12” value in [6] (4 h) is on record as 5.80 ± 0.49 % total activity (CPM) /106 cells. In addition, the “Uptake 24h SVG p12” value in [6] (24 h) is on record as 10.87 ± 2.17 % total activity (CPM) /106 cells. In addition, in [6] (48 h), the “Uptake 48h SVG p12” value is recorded as 8.38 ± 1.70 % total activity (CPM) /106 cells. For the same compound, in series [7] (1 h, Table S2), the “Internalized activity 1h U87 MG” value was 5.50 ± 0.80 % total activity (CPM) /106 cells. Further, the internalized fraction is recorded as 5.5 ± 0.8 % CPM/10^6 cells in series [7] (1 h, U87 MG) and 28.0 ± 1.0 % CPM/10^6 cells in series [7] (24 h, U87 MG). Moreover, the “Internalized activity 2h U87 MG” value in series [7] (2 h, Table S2) was 5.67 ± 0.67 % total activity (CPM) /106 cells. Besides, in [7] (4 h, Table S2), the “Internalized activity 4h U87 MG” value is 7.35 ± 1.31 % total activity (CPM) /106 cells. In addition, in [7] (24 h), the “internalization in U87 MG cells” value stood at 28.0 ± 1.0%. The “Internalized activity 24h U87 MG” value in [7] (24 h, Table S2) is 28.03 ± 1.02 % total activity (CPM) /106 cells. Further, the “internalization compared to [^64Cu]Cu-NOTA-TP” value in series [7] (24 h, U87 MG) is given as “over 1.5 fold”. Moreover, the “internalization compared to [^64Cu]Cu-NOTA-c(RGDfK)” value in series [7] (24 h, U87 MG) was “more than 2.4 fold”. In addition, in [7] (48 h, Table S2), the “Internalized activity 48h U87 MG” value is given as 24.08 ± 1.63 % total activity (CPM) /106 cells. Besides, the “Internalized activity 1h SVG p12” value in series [8] (1 h) was 2.85 ± 0.56 % total activity (CPM) /106 cells. In series [8] (2 h), the “Internalized activity 2h SVG p12” value was 2.46 ± 0.90 % total activity (CPM) /106 cells. In series [8] (4 h), the “Internalized activity 4h SVG p12” value is reported as 2.79 ± 0.38 % total activity (CPM) /106 cells. In series [8] (24 h), the “Internalized activity 24h SVG p12” value is on record as 7.40 ± 1.43 % total activity (CPM) /106 cells. Further, the “Internalized activity 48h SVG p12” value in [8] (48 h) is 8.21 ± 0.74 % total activity (CPM) /106 cells. Besides, the “Efflux (retained activity) 0.5h U87 MG” value in series [9] (setting [15]) is 88.93 ± 9.47 % total activity (CPM) /106 cells. In addition, the “Efflux (retained activity) 1h U87 MG” value in series [9] (1 h after wash) is 93.32 ± 1.47 % total activity (CPM) /106 cells. Also, the “Efflux (retained activity) 2h U87 MG” value in series [9] (2 h after wash) was 83.19 ± 4.21 % total activity (CPM) /106 cells. Moreover, the “Efflux (retained activity) 4h U87 MG” value in series [9] (4 h after wash) is reported as 76.55 ± 2.59 % total activity (CPM) /106 cells. Also, in series [9] (24 h after wash), the “Efflux (retained activity) 24h U87 MG” value is listed as 51.36 ± 2.08 % total activity (CPM) /106 cells. For the same compound, in series [10] (setting [15]), the “Efflux (retained activity) 0.5h SVG p12” value is 85.25 ± 8.63 % total activity (CPM) /106 cells. The “Efflux (retained activity) 1h SVG p12” value in [10] (1 h after wash) is given as 75.50 ± 10.93 % total activity (CPM) /106 cells. In addition, in series [10] (2 h after wash), the “Efflux (retained activity) 2h SVG p12” value was 54.29 ± 8.47 % total activity (CPM) /106 cells. Further, the “Efflux (retained activity) 4h SVG p12” value in series [10] (4 h after wash) is reported as 59.78 ± 2.75 % total activity (CPM) /106 cells. In series [10] (24 h after wash), the “Efflux (retained activity) 24h SVG p12” value is 31.32 ± 1.01 % total activity (CPM) /106 cells. Also, the nuclear uptake in series [11] (SVG p12, 24 h) came to 2.5 ± 0.8%; in [11] (SVG p12, 48 h), 0.9 ± 0.2%; in series [11] (SVG p12, 72 h), 0.9 ± 0.3%; in series [12] (24 h), 6.0 ± 0.5%. For the same compound, the cytoplasmic distribution in series [12] (24 h) was 17.4 ± 1.5%; in series [12] (48 h), 21.0 ± 0.7%; in [12] (72 h), 15.4 ± 0.5%. Besides, the “improvement in potency compared to nonradioactive analogue” value in series [1] (24 h, vs ^natCu-NOTA-TP-c(RGDfK)) is “approximately 2500 fold”. In series [13], the “free ^64Cu in plasma supernatant by radio-TLC” value is reported as “no detectable free ^64Cu”. Moreover, the “binding to bovine serum albumin” value in [14] turned out to be 52%. Further, the “toxicity in normal SVG p12 astrocytes” value in series [2] is “minimal toxicity”.

In general, EC50 refers to the concentration that produces a half-maximal response. As usually defined, the IC50 is the point on the concentration scale where inhibition reaches its midpoint. The low end stands for greater potency in that assay, the high end for weaker potency in that assay.
